# Measurements reported in patent US10834886B2, “Switchgrass cultivar PanIR” (priority 2017, dated 2020).
# Legend:
# [1] = tested on: switchgrass cultivars, Alamo and Kanlow; conditions: pre-plant application; cited from earlier work
# [2] = tested on: Indiangrass (resistant check); assay: Field emergence: seedlings surviving imazapic application; type: in vivo, Sorghastrum nutans; conditions: 14 oz/A
# Method: (§1) Plants were seeded in July and August of 2014 and during May of 2015. Data presented in Table 4 indicates 2014 testing at three locations (Brooksville, Newton, and Starkville). At all locations, PanIR seedling numbers exceeded all other generations of selection as well as the resistant check (indiangrass).
# [3] = tested on: Cycle1 switchgrass seedlings; assay: Herbicide screening of seedlings, First: Second Generation Selection; type: in vivo
# Method: Subsequent testing of the first generation seed/seedlings was conducted in the same manner as the initial herbicide screenings. The planting of the trays consisted of 8 rows of the first generation, one row Alamo, and one row indiangrass (tolerant control).
# Seedlings of Cycle1 (315,360) were screened for tolerance to 14 oz/A (2×) rate of Plateau®. Ninety-seven (97) survived the initial imazapic application. Sixty-eight (68) succumbed to a second (8 oz/A) application leaving twenty-nine (29) tolerant individuals which were planted in an isolated crossing block at Longview, Miss. (33.404999, −88.938283) as Cycle2.
# Rapid Germ Switchgrass = assay: Field emergence: seedlings surviving imazapic application; type: in vivo, Panicum virgatum; conditions: 14 oz/A
# Method: as §1
# [4] = tested on: Alamo (Cycle 0) switchgrass; assay: as above; type: in vivo, Panicum virgatum; conditions: 14 oz/A
# Method: as §1
# [5] = tested on: PanIR (Cycle 3) switchgrass; assay: as above; type: in vivo, Panicum virgatum; conditions: 14 oz/A
# Method: as §1
# Cycle 2 switchgrass = assay: as above; type: in vivo, Panicum virgatum; conditions: 14 oz/A
# Method: as §1
# Cycle 1 switchgrass = assay: as above; type: in vivo, Panicum virgatum; conditions: 14 oz/A
# Method: as §1
# PanIR Cycle3 switchgrass = assay: Agar/growth chamber germination on water agar + imazapic; type: in vivo, Panicum virgatum; conditions: 2.3 times higher rate, controlled conditions
# From the text: (§2) Since field emergence relies on soil tilth, rainfall, planter depth, and a host of other conditions, the inventors opted for a more uniform method of testing resistance: imazapic-dosed water agar. Data from germination under controlled conditions indicated significant progress for resistance to imazapic (Table 3) over three cycles of selection.
# [6] = tested on: Alamo (Cycle0) lowland switchgrass; assay: as above; type: in vivo, Panicum virgatum; conditions: controlled conditions
# From the text: as §2
# [7] = tested on: Alamo switchgrass seedlings (Cycle0); assay: Herbicide screening of seedlings, Zero: First Generation Selection; type: in vivo, Panicum virgatum
# Method: Selection for herbicide resistance was conducted using methods similar to the study performed by Bahler and others (1983). Heavy duty plastic and metal trays measuring 51.5 cm×36.5 cm were used to hold the germinating seedlings during growth and also allowed for easy maintenance and efficient application of herbicide. The testing was conducted in a greenhouse that maintained a nightly temperature of 20° C. and a daily temperature of 30° C. Before the autumnal equinox, day length was not supplemented for the experiment. After the equinox, light was extended to 16 hrs. Day length is a concern due to switchgrass' photoperiodic nature. Eight trays represent a replicate, which were repeated over time. Each tray was filled with autoclaved field soil approximately ¾ full. A 2.5 cm×30.5 cm piece of PVC pipe was used to form ten micro-furrows spaced at 5 cm within each tray. Nine of the ten rows were planted with approximately […] Alamo switchgrass seed (Sharp Brothers, Healy, Kans.). The remaining, randomly selected row was planted with 250 indiangrass seed (MSU 3rd cycle of selection for precocious germination). One hundred (100) seed were evenly dispersed within each furrow of the flat; flats were top-dressed with 0.63 cm of autoclaved field soil. The trays were watered on a daily basis. Emergence of the seedlings usually took place 6-8 days after planting. Once the seedlings broke the soil surface, they were allowed to grow to the three leaf stage (approximately 14 days). A calibrated spray chamber was used to apply the herbicide to the seedlings in the trays. For imazapic, the recommended rate is 140 g a.i./ha on mixed grassland, applied with less than 93.54 liters of water per hectare, sprayed at a constant pressure of 40 psi. A spray adjuvant (nonionic surfactant) was added to the formulation. In order to achieve the correct amounts for the spray mixture, the following calculations were made: (8 fl.oz./1 ac.)×(1 ac./15 gal.sol.)×(1 gal./128 fl.oz.sol.)×(20 f.oz.sol./1 bottle)×(3785 ml/128 fl.oz.)=2.46 ml/1 bottle H2O (3-1) The formulation requires 2.46 mls of Plateau®, 1.5 mls of surfactant, and 556 mls of water to fill the spray bottle for the chamber. The trays were placed two at a time in the chamber and sprayed at a fixed speed ([…]) to ensure proper dosage. A dose response curve was conducted on the sixth trial to determine the rate of Plateau® that would kill a majority of the switchgrass seedlings (Table 1).
# The upper limit was 245 g a.i./ha, which exceeded the labeled rate for big bluestem and indiangrass. […] Eight trays represented the curve and were assessed on the amount of discoloration relative to the unsprayed tray. […]
# switchgrass stands = conditions: in vivo; cited from earlier work
compound,measurement,setting,value
"CCC(CC)Nc1c([N+](=O)[O-])cc(C)c(C)c1[N+](=O)[O-] [Pendimethalin, pendimethalin]",mortality of stands,[1],up to 50%
"Cc1cnc(C2=NC(C)(C(C)C)C(=O)N2)c(C(=O)O)c1 (stereo not shown) [imazapic, 5-methyl-2-[4-methyl-5-oxo-4-(propan-2-yl)-4,5-dihydro-1H-imidazol-2-yl]pyridine-3-carboxylic acid]","Number of seedlings surviving, 42 days after spraying",[2]; Brooksville 2014,16.25^†B* seedlings emerged per 30 cm of row
same,"Number of seedlings surviving, 42 days after spraying",[2]; Brooksville 2015,24.50^†B* seedlings emerged per 30 cm of row
same,"Number of seedlings surviving, 42 days after spraying",[2]; Newton 2014,14.50 B seedlings emerged per 30 cm of row
same,"Number of seedlings surviving, 42 days after spraying",[2]; Starkville 2014,19.75 B seedlings emerged per 30 cm of row
same,"Number of seedlings surviving, 42 days after spraying",[2]; Starkville 2015,13.33 B seedlings emerged per 30 cm of row
same,selection intensity,"[3]; Cycle1: 29 seedlings selected out of 36,441 seedlings",0.0795%
same,mortality rate,[3]; seedlings produced from the first cycle polycross of selection,greater than 75%
same,"Number of seedlings surviving, 42 days after spraying",Rapid Germ Switchgrass; Brooksville 2014,2.75 B seedlings emerged per 30 cm of row
same,"Number of seedlings surviving, 42 days after spraying",Rapid Germ Switchgrass; Brooksville 2015,0.00 C seedlings emerged per 30 cm of row
same,"Number of seedlings surviving, 42 days after spraying",Rapid Germ Switchgrass; Newton 2014,2.00 B seedlings emerged per 30 cm of row
same,"Number of seedlings surviving, 42 days after spraying",Rapid Germ Switchgrass; Starkville 2014,2.00 C seedlings emerged per 30 cm of row
same,"Number of seedlings surviving, 42 days after spraying",Rapid Germ Switchgrass; Starkville 2015,1.00 B seedlings emerged per 30 cm of row
same,"Number of seedlings surviving, 42 days after spraying",[4]; Brooksville 2014,2.00 B seedlings emerged per 30 cm of row
same,"Number of seedlings surviving, 42 days after spraying",[4]; Brooksville 2015,5.75 BC seedlings emerged per 30 cm of row
same,"Number of seedlings surviving, 42 days after spraying",[4]; Newton 2014,6.50 B seedlings emerged per 30 cm of row
same,"Number of seedlings surviving, 42 days after spraying",[4]; Starkville 2014,8.25 BC seedlings emerged per 30 cm of row
same,"Number of seedlings surviving, 42 days after spraying",[4]; Starkville 2015,1.00 B seedlings emerged per 30 cm of row
same,"Number of seedlings surviving, 42 days after spraying",[5]; Brooksville 2014,53.00 A seedlings emerged per 30 cm of row
same,"Number of seedlings surviving, 42 days after spraying",[5]; Brooksville 2015,115.75 A seedlings emerged per 30 cm of row
same,"Number of seedlings surviving, 42 days after spraying",[5]; Newton 2014,43.00 A seedlings emerged per 30 cm of row
same,"Number of seedlings surviving, 42 days after spraying",[5]; Starkville 2014,49.50 A seedlings emerged per 30 cm of row
same,"Number of seedlings surviving, 42 days after spraying",[5]; Starkville 2015,16.00 A seedlings emerged per 30 cm of row
same,"Number of seedlings surviving, 42 days after spraying",Cycle 2 switchgrass; Brooksville 2014,14.25 B seedlings emerged per 30 cm of row
same,"Number of seedlings surviving, 42 days after spraying",Cycle 2 switchgrass; Brooksville 2015,18.75 BC seedlings emerged per 30 cm of row
same,"Number of seedlings surviving, 42 days after spraying",Cycle 2 switchgrass; Newton 2014,13.00 B seedlings emerged per 30 cm of row
same,"Number of seedlings surviving, 42 days after spraying",Cycle 2 switchgrass; Starkville 2014,13.75 BC seedlings emerged per 30 cm of row
same,"Number of seedlings surviving, 42 days after spraying",Cycle 2 switchgrass; Starkville 2015,5.67 B seedlings emerged per 30 cm of row
same,"Number of seedlings surviving, 42 days after spraying",Cycle 1 switchgrass; Brooksville 2014,8.25 B seedlings emerged per 30 cm of row
same,"Number of seedlings surviving, 42 days after spraying",Cycle 1 switchgrass; Brooksville 2015,19.25 BC seedlings emerged per 30 cm of row
same,"Number of seedlings surviving, 42 days after spraying",Cycle 1 switchgrass; Newton 2014,10.25 B seedlings emerged per 30 cm of row
same,"Number of seedlings surviving, 42 days after spraying",Cycle 1 switchgrass; Starkville 2014,3.25 C seedlings emerged per 30 cm of row
same,"Number of seedlings surviving, 42 days after spraying",Cycle 1 switchgrass; Starkville 2015,2.00 B seedlings emerged per 30 cm of row
same,resistance as percentage of the population,PanIR Cycle3 switchgrass,about 93.6%
same,resistance as percentage of the population,[6],approximately 3%
same,selection intensity,"[7]; 364,650 seedlings, 63 survivors, 245 g a.i./ha",0.0172%
same,selection intensity,"[7]; Cycle0 (Alamo): 63 individuals selected out of 306,000 seedlings",0.0205%
same,individuals surviving the initial screening,"[7]; approximately 364,650 Alamo individuals screened, 8 oz/A",78 individuals
same,individuals remaining in base population after second screening,[7]; the 78 survivors exposed to one-time application of 14 oz/A,63 individuals
CCNc1nc(Cl)nc(NC(C)C)n1 [atrazine],effect on switchgrass stands,switchgrass stands,no deleterious effects
